From publication PMC4503722, “Novel Phenotypic Outcomes Identified for a Public Collection of Approved Drugs from a Publicly Accessible Panel of Assays” (PLoS ONE, 2015)
Where two headings read alike, the source gives them in different places.

Experiments:
[1] = test system: HT-29; experiment: cells; assay type: cell-based; conditions: for Basal_Viability ATP HT-29 IC50/EC50: assay number 28
[2] = test system: HCT116 cells treated with a GSK3β inhibitor; experiment: cells; assay type: cell-based; conditions: for GSK3b inh pretreated_Viability ATP HCT116 IC50/EC50: assay number 26, GSK3b inhibitor pretreated; for IC50/EC50, GSK3b inh pretreated_Viability ATP HCT116 (assay number 26): GSK3b inh pretreated
[3] = test system: SW480; experiment: cells; assay type: cell-based; conditions: for Basal_Viability ATP SW480 IC50/EC50: assay number 24
[4] = test system: RKO; experiment: cells; assay type: cell-based; conditions: for Basal_Viability ATP RKO IC50/EC50: assay number 29
[5] = test system: ECFC/ADSC co-culture cell nuclei number
[6] = test system: SNU-C1; experiment: cells; assay type: cell-based; conditions: for Basal_Viability ATP SNU-C1 IC50/EC50: assay number 30
[7] = test system: HCT116; experiment: cells; assay type: cell-based; conditions: for Basal_Viability ATP HCT116 IC50/EC50: assay number 25; for Basal_Viability ATP HCT116 IC50/EC50 / IC50/EC50, Basal_Viability ATP HCT116 (assay number 25): basal
[8] = test system: endothelial tube formation in co-cultures of ECFCs and ADSCs treated with VEGF; experiment: cells; assay type: cell-based, human
[9] = test system: Colo320; experiment: cells; assay type: cell-based; conditions: for Basal_Viability ATP Colo 320 IC50/EC50: assay number 27
[10] = test system: DLD-1; experiment: cells; assay type: cell-based; conditions: for Basal_Viability ATP DLD-1 IC50/EC50: assay number 23
[11] = test system: HeLa cells; experiment: cells; assay type: cell-based; conditions: for Hela CellCycMod PI 2N IC50/EC50: assay number 14; for Hela CellCycMod PI S Phase IC50/EC50: assay number 15; for Hela CellCycMod PI 4N IC50/EC50: assay number 16; for Hela CellCycMod PI MI IC50/EC50: assay number 17; for Hela CellCycMod PI Cell Number IC50/EC50: assay number 18;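 for Hela CellCycMod PI 4N summarized IC50: value tracks stimulation of 4N DNA content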

Compound	GSK3b inh pretreated_Viability ATP HCT116 IC50/EC50 [2]	VEGF_ADSC\ECFC Angio Hoechst NucArea IC50/EC50 [5]	Basal_Viability ATP HCT116 IC50/EC50 [7]	VEGF_ADSC\ECFC Angio CD31 TubeArea IC50/EC50 [8]	Hela CellCycMod PI 2N IC50/EC50 [11]	Hela CellCycMod PI S Phase IC50/EC50 [11]	Hela CellCycMod PI 4N IC50/EC50 [11]	Hela CellCycMod PI MI IC50/EC50 [11]	Hela CellCycMod PI Cell Number IC50/EC50 [11]	IC50/EC50, Basal_Viability ATP HT-29 (assay number 28) ([1]; basal)	IC50/EC50, GSK3b inh pretreated_Viability ATP HCT116 (assay number 26) [2]	IC50/EC50, Basal_Viability ATP SW480 (assay number 24) ([3]; basal)	IC50/EC50, Basal_Viability ATP RKO (assay number 29) ([4]; basal)	IC50/EC50, VEGF_ADSC\ECFC Angio Hoechst NucArea (assay number 3) [5]	IC50/EC50, Basal_Viability ATP SNU-C1 (assay number 30) ([6]; basal)	IC50/EC50, Basal_Viability ATP HCT116 (assay number 25) [7]	IC50/EC50, VEGF_ADSC\ECFC Angio CD31 TubeArea (assay number 2) [8]	IC50/EC50, Basal_Viability ATP Colo 320 (assay number 27) ([9]; basal)	IC50/EC50, Basal_Viability ATP DLD-1 (assay number 23) ([10]; basal)	IC50/EC50, Hela CellCycMod PI 2N (assay number 14) [11]	further results
Cl.O[C@@H](CNC[C@H](O)[C@H]1CCc2cc(F)ccc2O1)[C@@H]1CCc2cc(F)ccc2O1 [NCGC00263579-01]	2.3971 µM	> 10 µM	6.4812 µM	> 10 µM	> 10 µM	> 10 µM	> 10 µM	> 10 µM	5.565 µM	–	–	–	–	–	–	–	–	–	–	–	Basal_Viability ATP HT-29 IC50/EC50 [1]: 4.5046 µM; Basal_Viability ATP SW480 IC50/EC50 [3]: 3.6015 µM; Basal_Viability ATP RKO IC50/EC50 [4]: 3.2799 µM; Basal_Viability ATP SNU-C1 IC50/EC50 [6]: 5.0932 µM; Basal_Viability ATP Colo 320 IC50/EC50 [9]: > 20 µM; Basal_Viability ATP DLD-1 IC50/EC50 [10]: 15.2632 µM
O=C1C(I)=CC(=C(c2cc(I)c(O)c(I)c2)c2ccccc2C(=O)O)C=C1I [NCGC00161636-02]	–	–	–	–	–	–	–	–	–	–	–	–	–	–	–	–	–	–	–	–	IC50 ([1]; read-out: Basal_Viability ATP HT-29 summarized IC50): 5.73 µM; IC50 ([2]; read-out: GSK3b inh pretreated_Viability ATP HCT116 summarized IC50): 0.054 µM; IC50 ([3]; read-out: Basal_Viability ATP SW480 summarized IC50): 0.112 µM; IC50 ([4]; read-out: Basal_Viability ATP RKO summarized IC50): 0.0373 µM; IC50 ([5]; read-out: VEGF_ADSC\ECFC Angio Hoechst NucArea summarized IC50): > 10 µM; IC50 ([6]; read-out: Basal_Viability ATP SNU-C1 summarized IC50): 3.76 µM; IC50 ([7]; read-out: Basal_Viability ATP HCT116 summarized IC50): 0.384 µM; IC50 ([8]; read-out: VEGF_ADSC\ECFC Angio CD31 TubeArea summarized IC50): > 10 µM; IC50 ([9]; read-out: Basal_Viability ATP Colo 320 summarized IC50): 0.312 µM; IC50 ([10]; read-out: Basal_Viability ATP DLD-1 summarized IC50): 0.0132 µM; IC50 ([11]; read-out: Hela CellCycMod PI 2N summarized IC50): > 10 µM; IC50 ([11]; read-out: Hela CellCycMod PI 4N summarized IC50): > 10 µM; IC50 ([11]; read-out: Hela CellCycMod PI Cell Number summarized IC50): > 10 µM; IC50 ([11]; read-out: Hela CellCycMod PI MI summarized IC50): > 10 µM; IC50 ([11]; read-out: Hela CellCycMod PI S Phase summarized IC50): > 10 µM
Cc1cc(N)c2ccccc2[n+]1CCCCCCCCCC[n+]1c(C)cc(N)c2ccccc21 [NCGC00015339-07]	–	–	–	–	–	–	–	–	–	> 20 µM	> 20 µM	3.8338 µM	2.4541 µM	> 10 µM	1.2926 µM	> 20 µM	> 10 µM	15.8701 µM	5.7172 µM	> 10 µM	IC50/EC50, Hela CellCycMod PI 4N (assay number 16) [11]: > 10 µM; IC50/EC50, Hela CellCycMod PI Cell Number (assay number 18) [11]: > 10 µM; IC50/EC50, Hela CellCycMod PI MI (assay number 17) [11]: > 10 µM; IC50/EC50, Hela CellCycMod PI S Phase (assay number 15) [11]: > 10 µM
O=[N+]([O-])c1ccc(Oc2ccc(N=C=S)cc2)cc1 [NCGC00182049-02]	1.472 µM	> 10 µM	2.772 µM	3.7244 µM	> 10 µM	> 10 µM	> 10 µM	> 10 µM	> 10 µM	–	–	–	–	–	–	–	–	–	–	–	Basal_Viability ATP HT-29 IC50/EC50 ([1]; basal): 1.0654 µM; Basal_Viability ATP SW480 IC50/EC50 ([3]; basal): 1.634 µM; Basal_Viability ATP RKO IC50/EC50 ([4]; basal): 2.341 µM; Basal_Viability ATP SNU-C1 IC50/EC50 ([6]; basal): 4.3298 µM; Basal_Viability ATP Colo 320 IC50/EC50 ([9]; basal): 1.465 µM; Basal_Viability ATP DLD-1 IC50/EC50 ([10]; basal): 2.102 µM
O=C(Nc1ccc(Br)cc1)c1cc(Br)cc(Br)c1O [NCGC00159476-09]	–	–	–	–	–	–	–	–	–	0.001 µM	0.001 µM	0.001 µM	0.003 µM	> 10 µM	0.001 µM	0.003 µM	1.8138 µM	0.003 µM	0.001 µM	> 10 µM	IC50/EC50, Hela CellCycMod PI 4N (assay number 16) [11]: > 10 µM; IC50/EC50, Hela CellCycMod PI Cell Number (assay number 18) [11]: > 10 µM; IC50/EC50, Hela CellCycMod PI MI (assay number 17) [11]: > 10 µM; IC50/EC50, Hela CellCycMod PI S Phase (assay number 15) [11]: > 10 µM
